Data taken from US20170050980A1, “OXADIAZINE COMPOUNDS AND METHODS OF USE THEREOF” (FORUM Pharmaceuticals Inc., priority 2015, published 2017).

System: Aβ42
Assay: In vitro cell screening assay; quantification of Aβ (1-42) peptide by sandwich ELISA
Type: cell-based
Conditions: Human neuroglioma H4 cells stably expressing human wild type APP751; compounds 0.003-10 μM, incubated overnight (16-18 h); Aβ42 in supernatant by sandwich ELISA; normalized to DMSO and DAPT; read-out: Aβ42 H4 Prot Fre IC50
In short: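 Stable H4 neuroglioma line expressing human wild-type APP751; compounds 0.003-10 μM (0.33% DMSO final) added in Pro293 medium 6 h after plating, incubated overnight (16-18 h) at 37 °C. Secreted Aβ42 measured in supernatant by C-terminal-capture sandwich ELISA with 4G8-HRP detection; IC50 by sigmoidal fit, normalized to DMSO and DAPT.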

`COc1nc(C2=NOC(C)C(c3ccc(Cl)c(F)c3)N2)ccc1-n1cnc(C)c1` (stereo not drawn) [40-IA or 40-IIA, (−)-(cis)-5-(4-chloro-3-fluorophenyl)-3-(6-methoxy-5-(4-methyl-1H-imidazol-1-yl)pyridin-2-yl)-6-methyl-5,6-dihydro-4H-1,2,4-oxadiazine] was tested. Which IC50 did it give?
Its IC50 is 1840 nM.

How did the IC50 turn out when `COc1nc(C2=NOC(C)C(c3cn(C)c4ncc(C5CC5)cc34)N2)ccc1-n1cnc(C)c1` (single isomer, unassigned; (-)) [Example 56C, (−)-5-(5-cyclopropyl-1-methyl-1H-pyrrolo [2,3-b]pyridin-3-yl)-3-(6-methoxy-5-(4-methyl-1H-imidazol-1-yl)pyridin-2-yl)-6-methyl-5,6-dihydro-4H-1,2,4-oxadiazine] was run?
Its IC50 is 221 nM.

`COc1nc(C2=NOC(C)C(c3cn(C)c4cc(F)c(F)cc34)N2)ccc1-n1cnc(C)c1` (single isomer, unassigned; (+)) [Example 39D, (+)-5-(5,6-difluoro-1-methyl-1H-indol-3-yl)-3-(6-methoxy-5-(4-methyl-1H-imidazol-1-yl)pyridin-2-yl)-6-methyl-5,6-dihydro-4H-1,2,4-oxadiazine] was tested. Which IC50 did it give?
The IC50 was 4.4 nM.

How did the IC50 turn out when `COc1nc(C2=NOC(C3CC3)C(c3cn(C)c4ncc(F)c(F)c34)N2)ccc1-n1cnc(C)c1` (single isomer, unassigned; (-)) [Example 60B, (−)-6-cyclopropyl-5-(4,5-difluoro-1-methyl-1H-pyrrolo [2,3-b]pyridin-3-yl)-3-(6-methoxy-5-(4-methyl-1H-imidazol-1-yl)pyridin-2-yl)-5,6-dihydro-4H-1,2,4-oxadiazine] was run?
The IC50 was 42.7 nM.

`COc1nc(C2=NOC(C)C(c3cn(C)c4ncc(F)c(F)c34)N2)ccc1-n1cnc(C)c1` (single isomer, unassigned; (+)) [Example 51C, (+)-5-(4,5-difluoro-1-methyl-1H-pyrrolo [2,3-b]pyridin-3-yl)-3-(6-methoxy-5-(4-methyl-1H-imidazol-1-yl)pyridin-2-yl)-6-methyl-5,6-dihydro-4H-1,2,4-oxadiazine] was tested. Which IC50 did it give?
The IC50 was 975 nM.

`COc1nc(C2=NOCC3CN(c4ccc(Cl)cc4C(F)(F)F)CCN23)ccc1-n1cnc(C)c1` (single isomer, unassigned) [Example 36B, 8-(4-chloro-2-(trifluoromethyl)phenyl)-4-(6-methoxy-5-(4-methyl-1H-imidazol-1-yl)pyridin-2-yl)-1,6,7,8,9,9a-hexahydropyrazino [1,2-d] [1,2,4] oxadiazine] was tested. Which IC50 did it give?
Its IC50 is 307 nM.

For `COc1nc(C2=NO[C@H](c3ccc(Cl)cc3)[C@H](C)N2)ccc1-n1cnc(C)c1` [Example 71A, (5S,6R)-6-(4-chlorophenyl)-3-(6-methoxy-5-(4-methyl-1H-imidazol-1-yl)pyridin-2-yl)-5-methyl-5,6-dihydro-4H-1,2,4-oxadiazine], which IC50 is on record?
Its IC50 is 12.7 nM.

Which IC50 does the source give for `COc1nc(C2=NOC(C)(C)C(c3ccc(Cl)cc3)N2)ccc1-n1cnc(C)c1` (single isomer, unassigned; (+)) [Example 23B, (+)-5-(4-chlorophenyl)-3-[6-methoxy-5-(4-methyl-1H-imidazol-1-yl)pyridin-2-yl]-6,6-dimethyl-5,6-dihydro-4H-1,2,4-oxadiazine] here?
The IC50 was 23 nM.
